Assays:
Format in all cases: in vivo
Settings in all cases: alone
[1] = tested on: diamondback moth, Plutella xylostella; assay: Cabbage plant track-sprayer bioassay against second instar diamondback moth
From the text: (§1) The method described in Colby S. R., “Calculating Synergistic and Antagonistic Responses of Herbicide Combinations,” Weeds, 1967, 15, 20-22 was used to determine an existence of synergic effect between the chloride channel activator compound and the pesticide (I), (II), or any agriculturally acceptable salt thereof in the formulated pesticidal composition. In this method, the percent insect control of the formulated pesticidal composition as observed in the study was compared to the “expected” percent control (E) as calculated by equation (1) (hereinafter “Colby's equation”) below: […]
Bioassays were performed for different active compounds. Cabbage plants with about two to three new-growth-true leaf stage were treated with different active compounds using a track sprayer application at 400 L/Ha spray volume. Three second instar diamondback moth, Plutella xylostella, were infested onto each leaf disc. The percent control of the pesticidal composition against diamondback moth, Plutella xylostella, was determined as the “Observed” action, and compared to those obtained by using about 0.0025 weight % of compound II, and using about 0.000078 weight % of emamectin benzoate alone. The “Colby's Expected Action” was calculated using Colby's equation as discussed previously.
Bioassays were performed wherein different active compounds were tested against diamondback moth, Plutella xylostella, using the procedure described in example 5A.

[2] = tested on: South American brown stink bug, Euschistus heros; assay: Treated bean piece bioassay against third-instar nymphs of South American brown stink bug
From the text: as §1
The active compounds were formulated in a 10% acetone solution with 0.025% non-ionic surfactant, TWEEN® 20. Bioassays were performed for each different active solution. Bean pieces (about one inch-long) were used for the tests. Four bean pieces were placed in each tested active solution and left there for 10 minutes. […]
The percent control of the pesticidal composition against South American brown stink bug, Euschistus heros, was determined as the “Observed” action, and compared to those obtained by using about 0.04 weight % of compound I, and using about 0.000156 weight % of emamectin benzoate alone. The “Colby's Expected Action” was calculated using Colby's equation as discussed previously.

[3] = tested on: Western plant bug, Lygus hesperus; assay: Treated bean piece bioassay against third-instar nymphs of Western plant bug
From the text: as §1
The active compounds were formulated in a 10% acetone solution with 0.025% non-ionic surfactant, TWEEN® 20. Bioassays were performed for each different active solution. Bean pieces (about one inch-long) were used for the tests. Four bean pieces were placed in each tested active solution and left there for 10 minutes. Bean pieces were taken out of the active solution, and each piece was placed in a well in a 32-well tray and allowed to air dry. Three third-instar nymphs of Western plant bug, Lygus hesperus, were infested into each well. The percent control of the pesticidal composition against Lygus hesperus bug was determined as the “Observed” action, and compared to those obtained by using about 0.04 weight % of compound I, and using about 0.20 weight % of emamectin benzoate alone. The “Colby's Expected Action” was calculated using Colby's equation as discussed previously.

| Compound | % Control Three Days After Treatment ([1]; dose rate 0.000625 weight %) | % Control Four Days After Treatment ([2]; dose rate 0.04 weight %) [%] | % Control Three Days After Treatment ([3]; dose rate 0.04 weight %) [%] | % Control Three Days After Treatment ([3]; dose rate 0.04 weight %, listed as compound I) | % Control Three Days After Treatment ([1]; dose rate 0.000039 weight %) [%] | % Control Three Days After Treatment ([1]; dose rate 0.000078 weight %) [%] | % Control Four Days After Treatment ([2]; dose rate 0.000156 weight %) [%] | % Control Three Days After Treatment ([3]; dose rate 0.20 weight %) [%] | % Control Three Days After Treatment ([3]; dose rate 0.20 weight %, listed as emamectin benzoate) |
| --- | --- | --- | --- | --- | --- | --- | --- | --- | --- |
| CCN(C(=O)CCSCCC(F)(F)F)c1cn(-c2cccnc2)nc1Cl [Compound I, N-(3-chloro-1-(pyridin-3-yl)-1H-pyrazol-4-yl)-N-ethyl-3-((3,3,3-trifluoropropyl)thio)propanamide] | no control | 8 | 0 | no control | – | – | – | – | – |
| emamectin benzoate | – | – | – | – | 73.91 | 91.3 | 25 | 0 | no control |

From patent US9497967B2, “Synergistic pesticidal compositions and related methods” (Dow AgroSciences LLC, priority 2013, dated 2016)
